# Assays:
# [1] = target: ABL1 (Q252H)-phosphorylated (Homo sapiens, UniProt P00519, Q252H); test: Kinase profiling; assay type: binding; details: read-out: % Ctrl @ 1000 nM
# [2] = target: ABL1 (T315I)-nonphosphorylated (Homo sapiens, UniProt P00519, T315I); test: Kinase profiling; assay type: binding; details: read-out: % Ctrl @ 1000 nM
# ACVRL1 = ACVRL1 (Homo sapiens, UniProt P37023); test: Kinase profiling; assay type: binding; details: read-out: % Ctrl @ 1000 nM
# AMPK-alpha2 = AMPK-alpha2 (Homo sapiens, UniProt P54646); test: Kinase profiling; assay type: binding; details: read-out: % Ctrl @ 1000 nM
# BMPR2 = BMPR2 (Homo sapiens, UniProt Q13873); test: Kinase profiling; assay type: binding; details: read-out: % Ctrl @ 1000 nM
# BMX = BMX (Homo sapiens, UniProt P51813); test: Kinase profiling; assay type: binding; details: read-out: % Ctrl @ 1000 nM
# Sequence of BMX (P51813 whole entry): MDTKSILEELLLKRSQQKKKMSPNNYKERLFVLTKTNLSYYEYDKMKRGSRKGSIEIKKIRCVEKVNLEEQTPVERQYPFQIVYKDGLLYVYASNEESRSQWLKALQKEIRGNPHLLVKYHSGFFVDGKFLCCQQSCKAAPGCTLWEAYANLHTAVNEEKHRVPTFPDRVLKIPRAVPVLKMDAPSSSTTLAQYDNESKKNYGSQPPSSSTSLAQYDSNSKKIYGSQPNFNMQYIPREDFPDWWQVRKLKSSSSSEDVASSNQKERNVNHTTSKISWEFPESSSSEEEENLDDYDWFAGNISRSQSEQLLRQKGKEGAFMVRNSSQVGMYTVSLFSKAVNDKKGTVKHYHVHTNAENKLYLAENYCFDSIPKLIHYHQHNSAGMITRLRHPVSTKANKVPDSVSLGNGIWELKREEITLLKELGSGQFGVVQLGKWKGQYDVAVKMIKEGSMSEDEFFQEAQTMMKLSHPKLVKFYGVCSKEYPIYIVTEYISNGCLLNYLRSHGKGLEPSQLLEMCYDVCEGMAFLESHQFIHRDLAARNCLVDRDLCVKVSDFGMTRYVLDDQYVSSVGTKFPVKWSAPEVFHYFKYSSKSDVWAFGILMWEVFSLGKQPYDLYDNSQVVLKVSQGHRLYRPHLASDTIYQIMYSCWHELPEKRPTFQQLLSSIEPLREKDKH
# DMPK2 = DMPK2 (Homo sapiens, UniProt Q6DT37); test: Kinase profiling; assay type: binding; details: read-out: % Ctrl @ 1000 nM
# DRAK2 = DRAK2 (Homo sapiens, UniProt O94768); test: Kinase profiling; assay type: binding; details: read-out: % Ctrl @ 1000 nM
# EGFR = EGFR (Homo sapiens, UniProt P00533); test: Kinase profiling; assay type: binding; details: read-out: % Ctrl @ 1000 nM
# Sequence of EGFR (P00533 25-1210): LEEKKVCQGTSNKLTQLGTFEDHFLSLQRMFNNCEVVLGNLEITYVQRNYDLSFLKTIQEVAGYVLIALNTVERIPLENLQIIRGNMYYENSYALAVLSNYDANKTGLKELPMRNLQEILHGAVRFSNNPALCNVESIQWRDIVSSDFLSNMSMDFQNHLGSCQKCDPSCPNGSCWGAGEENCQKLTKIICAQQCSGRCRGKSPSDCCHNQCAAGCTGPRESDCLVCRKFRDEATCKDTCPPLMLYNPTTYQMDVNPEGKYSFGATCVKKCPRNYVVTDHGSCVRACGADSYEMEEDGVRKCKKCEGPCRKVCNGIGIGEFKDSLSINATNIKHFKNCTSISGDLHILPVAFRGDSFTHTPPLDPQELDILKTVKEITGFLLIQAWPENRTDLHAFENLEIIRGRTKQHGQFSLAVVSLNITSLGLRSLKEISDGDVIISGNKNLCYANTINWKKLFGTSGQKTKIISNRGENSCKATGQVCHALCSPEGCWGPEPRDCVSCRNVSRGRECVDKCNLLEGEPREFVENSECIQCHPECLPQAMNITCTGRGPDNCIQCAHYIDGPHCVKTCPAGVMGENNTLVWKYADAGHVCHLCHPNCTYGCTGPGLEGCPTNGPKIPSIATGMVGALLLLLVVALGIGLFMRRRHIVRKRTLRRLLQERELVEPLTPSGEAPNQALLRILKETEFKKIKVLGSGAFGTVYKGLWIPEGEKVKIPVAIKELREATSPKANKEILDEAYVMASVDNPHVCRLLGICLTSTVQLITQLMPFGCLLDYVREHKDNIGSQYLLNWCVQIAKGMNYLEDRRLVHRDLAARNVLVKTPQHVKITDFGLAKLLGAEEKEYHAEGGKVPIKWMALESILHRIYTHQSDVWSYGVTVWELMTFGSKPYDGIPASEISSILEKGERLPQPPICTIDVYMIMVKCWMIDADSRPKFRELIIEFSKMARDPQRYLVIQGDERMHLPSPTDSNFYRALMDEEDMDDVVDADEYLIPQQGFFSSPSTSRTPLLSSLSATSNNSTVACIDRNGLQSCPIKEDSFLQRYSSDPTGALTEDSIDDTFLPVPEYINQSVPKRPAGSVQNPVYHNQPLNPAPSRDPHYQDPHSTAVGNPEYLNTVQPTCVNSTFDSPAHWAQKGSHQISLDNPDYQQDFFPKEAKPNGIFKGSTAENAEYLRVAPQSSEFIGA
# EPHA4 = EPHA4 (Homo sapiens, UniProt P54764); test: Kinase profiling; assay type: binding; details: read-out: % Ctrl @ 1000 nM
# Sequence of EPHA4 (P54764 20-986): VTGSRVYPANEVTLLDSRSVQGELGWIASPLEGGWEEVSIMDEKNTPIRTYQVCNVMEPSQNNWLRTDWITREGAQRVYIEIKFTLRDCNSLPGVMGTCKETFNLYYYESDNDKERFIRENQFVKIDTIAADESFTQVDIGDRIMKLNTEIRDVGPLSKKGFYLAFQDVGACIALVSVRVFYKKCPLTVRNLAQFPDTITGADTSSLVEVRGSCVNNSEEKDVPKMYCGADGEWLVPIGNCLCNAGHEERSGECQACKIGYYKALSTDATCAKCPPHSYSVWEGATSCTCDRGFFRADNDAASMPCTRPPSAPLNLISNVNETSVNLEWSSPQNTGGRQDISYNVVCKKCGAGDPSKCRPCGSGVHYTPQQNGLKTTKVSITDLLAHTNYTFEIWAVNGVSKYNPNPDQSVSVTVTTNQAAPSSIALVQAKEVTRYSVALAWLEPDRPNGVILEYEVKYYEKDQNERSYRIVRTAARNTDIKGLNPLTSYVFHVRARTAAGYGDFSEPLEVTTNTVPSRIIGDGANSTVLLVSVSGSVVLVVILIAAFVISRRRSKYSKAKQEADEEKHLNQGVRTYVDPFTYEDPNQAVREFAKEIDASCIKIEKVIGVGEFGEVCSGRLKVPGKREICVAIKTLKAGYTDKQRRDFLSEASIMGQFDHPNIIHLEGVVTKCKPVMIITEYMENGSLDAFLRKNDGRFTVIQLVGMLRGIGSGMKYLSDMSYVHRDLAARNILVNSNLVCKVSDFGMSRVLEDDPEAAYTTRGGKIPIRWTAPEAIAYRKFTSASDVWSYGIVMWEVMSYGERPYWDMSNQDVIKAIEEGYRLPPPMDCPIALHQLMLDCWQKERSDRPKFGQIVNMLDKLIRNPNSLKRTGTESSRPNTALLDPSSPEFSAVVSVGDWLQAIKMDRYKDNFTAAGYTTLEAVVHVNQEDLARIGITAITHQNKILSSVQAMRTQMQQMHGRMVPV
# EPHA8 = EPHA8 (Homo sapiens, UniProt P29322); test: Kinase profiling; assay type: binding; details: read-out: % Ctrl @ 1000 nM
# EPHB6 = EPHB6 (Homo sapiens, UniProt O15197); test: Kinase profiling; assay type: binding; details: read-out: % Ctrl @ 1000 nM
# FAK = FAK (Homo sapiens, UniProt Q05397); test: Kinase profiling; assay type: binding; details: read-out: % Ctrl @ 1000 nM
# IRAK1 = IRAK1 (Homo sapiens, UniProt P51617); test: Kinase profiling; assay type: binding; details: read-out: % Ctrl @ 1000 nM
# IRAK4 = IRAK4 (Homo sapiens, UniProt Q9NWZ3); test: Kinase profiling; assay type: binding; details: read-out: % Ctrl @ 1000 nM
# MAP4K4 = MAP4K4 (Homo sapiens, UniProt O95819); test: Kinase profiling; assay type: binding; details: read-out: % Ctrl @ 1000 nM
# MET = target: T1, MET (Homo sapiens, UniProt P08581); test: Kinase profiling; assay type: binding; details: read-out: % Ctrl @ 1000 nM
# T1 construct: T7 phage fusion (stated for most kinases of the panel only); made in house; host or cells: T7 phage in E. coli (BL21-derived) or HEK-293 cells
# MLCK = target: T2, MLCK (Homo sapiens, UniProt Q32MK0); test: Kinase profiling; assay type: binding; details: read-out: % Ctrl @ 1000 nM
# T2 construct: T7 phage fusion (stated for most kinases of the panel only); made in house; host or cells: T7 phage in E. coli (BL21-derived) or HEK-293 cells
# T2 sequence (Q32MK0 whole entry, the tested form may be a part): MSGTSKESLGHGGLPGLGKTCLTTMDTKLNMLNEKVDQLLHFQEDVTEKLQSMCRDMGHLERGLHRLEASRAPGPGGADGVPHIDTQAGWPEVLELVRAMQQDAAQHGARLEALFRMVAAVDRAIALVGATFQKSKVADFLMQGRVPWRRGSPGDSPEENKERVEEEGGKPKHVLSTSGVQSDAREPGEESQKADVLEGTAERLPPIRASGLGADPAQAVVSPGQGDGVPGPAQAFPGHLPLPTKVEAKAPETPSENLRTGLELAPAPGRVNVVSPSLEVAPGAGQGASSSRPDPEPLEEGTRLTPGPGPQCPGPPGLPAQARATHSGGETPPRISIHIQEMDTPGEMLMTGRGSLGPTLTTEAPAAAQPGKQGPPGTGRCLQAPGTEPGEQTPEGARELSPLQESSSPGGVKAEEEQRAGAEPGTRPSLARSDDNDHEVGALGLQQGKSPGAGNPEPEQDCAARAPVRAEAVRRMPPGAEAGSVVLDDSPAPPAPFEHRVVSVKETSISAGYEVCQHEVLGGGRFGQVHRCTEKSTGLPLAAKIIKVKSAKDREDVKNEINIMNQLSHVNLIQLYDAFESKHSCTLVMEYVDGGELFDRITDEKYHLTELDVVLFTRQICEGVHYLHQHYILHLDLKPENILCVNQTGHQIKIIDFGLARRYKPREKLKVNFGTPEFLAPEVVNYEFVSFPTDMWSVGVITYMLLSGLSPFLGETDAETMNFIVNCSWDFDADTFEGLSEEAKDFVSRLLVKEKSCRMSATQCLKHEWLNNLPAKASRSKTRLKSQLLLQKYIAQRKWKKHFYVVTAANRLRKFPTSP
# PIK3CA (C420R) = PIK3CA (C420R) (Homo sapiens, UniProt P42336, C420R); test: Kinase profiling; assay type: binding; details: read-out: % Ctrl @ 1000 nM
# PIK3CA (E545K) = PIK3CA (E545K) (Homo sapiens, UniProt P42336, E545K); test: Kinase profiling; assay type: binding; details: read-out: % Ctrl @ 1000 nM
# PIP5K1A = PIP5K1A (Homo sapiens, UniProt Q99755); test: Kinase profiling; assay type: binding; details: read-out: % Ctrl @ 1000 nM
# Sequence of PIP5K1A (Q99755 whole entry): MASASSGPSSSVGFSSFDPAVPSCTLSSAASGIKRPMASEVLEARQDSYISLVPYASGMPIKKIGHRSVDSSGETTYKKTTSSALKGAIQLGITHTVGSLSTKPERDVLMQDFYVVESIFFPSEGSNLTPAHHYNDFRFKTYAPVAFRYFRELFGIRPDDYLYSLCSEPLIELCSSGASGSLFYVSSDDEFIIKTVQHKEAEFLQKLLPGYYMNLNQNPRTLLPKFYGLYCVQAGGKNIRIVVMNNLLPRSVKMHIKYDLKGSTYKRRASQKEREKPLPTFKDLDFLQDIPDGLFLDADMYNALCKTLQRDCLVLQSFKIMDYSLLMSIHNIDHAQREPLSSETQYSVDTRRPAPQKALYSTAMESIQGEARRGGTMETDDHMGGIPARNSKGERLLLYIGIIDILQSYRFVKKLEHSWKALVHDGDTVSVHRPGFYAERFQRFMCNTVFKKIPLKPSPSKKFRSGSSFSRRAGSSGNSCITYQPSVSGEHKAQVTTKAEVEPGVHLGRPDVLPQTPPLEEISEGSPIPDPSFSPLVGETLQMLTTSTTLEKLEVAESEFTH
# [3] = target: RSK4 (Kin.Dom.2-C-terminal) (Homo sapiens, UniProt Q9UK32); test: Kinase profiling; assay type: binding; details: read-out: % Ctrl @ 1000 nM
# SNRK = SNRK (Homo sapiens, UniProt Q9NRH2); test: Kinase profiling; assay type: binding; details: read-out: % Ctrl @ 1000 nM
# SRPK1 = SRPK1 (Homo sapiens, UniProt Q96SB4); test: Kinase profiling; assay type: binding; details: read-out: % Ctrl @ 1000 nM
# [4] = target: TYK2 (JH1domain-catalytic) (Homo sapiens, UniProt P29597); test: Kinase profiling; assay type: binding; details: read-out: % Ctrl @ 1000 nM
# VEGFR2 = VEGFR2 (Homo sapiens, UniProt P35968); test: Kinase profiling; assay type: binding; details: read-out: % Ctrl @ 1000 nM
# YANK3 = YANK3 (Homo sapiens, UniProt Q86UX6); test: Kinase profiling; assay type: binding; details: read-out: % Ctrl @ 1000 nM
# ZAP70 = ZAP70 (Homo sapiens, UniProt P43403); test: Kinase profiling; assay type: binding; details: read-out: % Ctrl @ 1000 nM
# Sequence of ZAP70 (P43403 whole entry): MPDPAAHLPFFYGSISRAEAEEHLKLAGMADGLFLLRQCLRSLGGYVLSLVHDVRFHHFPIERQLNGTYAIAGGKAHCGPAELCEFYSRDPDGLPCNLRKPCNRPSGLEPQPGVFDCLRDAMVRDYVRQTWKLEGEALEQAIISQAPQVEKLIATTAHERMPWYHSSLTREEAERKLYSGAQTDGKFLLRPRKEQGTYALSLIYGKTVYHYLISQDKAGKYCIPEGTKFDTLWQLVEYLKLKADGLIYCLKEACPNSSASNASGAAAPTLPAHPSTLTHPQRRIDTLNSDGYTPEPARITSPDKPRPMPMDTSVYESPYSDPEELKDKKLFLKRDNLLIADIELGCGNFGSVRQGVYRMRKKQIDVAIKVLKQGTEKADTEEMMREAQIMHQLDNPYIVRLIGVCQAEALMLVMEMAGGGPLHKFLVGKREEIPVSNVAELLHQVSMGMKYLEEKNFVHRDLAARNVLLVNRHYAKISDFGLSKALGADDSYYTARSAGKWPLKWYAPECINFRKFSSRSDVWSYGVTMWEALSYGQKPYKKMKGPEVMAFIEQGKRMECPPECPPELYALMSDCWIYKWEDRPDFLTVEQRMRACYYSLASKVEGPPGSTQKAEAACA
# B-Raf (h) = target: T3, B-Raf (h) (Homo sapiens, UniProt P15056); test: Kinase IC50 (Eurofins KinaseProfiler); assay type: biochemical
# T3 construct: purchased Eurofins
# Method: (§1) CBT-102 were tested against each of the selected kinases using the Eurofins standard KinaseProfder assays and following the relevant standard operating procedures. The required volume of the 50× stock of test compound (CBT-102) was added to the assay well, before a reaction mix containing the enzyme and substrate was added. The reaction was initiated by the addition of ATP at the selected concentration. There was no pre-incubation of the compound with the enzyme/substrate mix prior to ATP addition.
# (§2) Data are handled using a custom-built in-house analysis software. Results are expressed as kinase activity remaining, as a percentage of the DMSO control. This is calculated using the following formula: […]
# (§3) For IC50 determinations, data are analyzed using XLFit version 5.3 (ID Business Solutions).
# CSK (h) = target: T4, CSK (h) (Homo sapiens, UniProt P41240); test: Kinase IC50 (Eurofins KinaseProfiler); assay type: biochemical
# T4 construct: purchased Eurofins (KinaseProfiler service)
# Method: as §1, §2, §3
# EphB3 (h) = target: T5, EphB3 (h) (Homo sapiens, UniProt P54753); test: Kinase IC50 (Eurofins KinaseProfiler); assay type: biochemical
# T5 construct: purchased Eurofins (KinaseProfiler service)
# Method: as §1, §2, §3
# [5] = tested on: CD3 (T cell surface marker); test: CD3 IHC test in MC-38 tumor; assay type: in vivo, mouse; details: MC-38 tumors; vs vehicle group
# Method: MC38 tumor tissues were collected at the end of the in vivo efficacy trial. The tumor tissue was then embedded in paraffin. The expression of CD3/CD4/CD8/F4-80 were tested by immunohistochemistry stain.
# 403 non-mutant kinases = test: Selectivity Score from kinase profiling
# Method: Streptavidin-coated magnetic beads were treated with biotinylated small molecule ligands of the kinases for 30 minutes at room temperature to generate affinity resins for kinase assays. The liganded beads were blocked with excess biotin and washed with blocking buffer (SeaBlock (Pierce), 1% BSA, 0.05% Tween 20, 1 mM DTT) to remove unbound ligand and to reduce non-specific phage binding. Binding reactions were assembled by combining kinases, liganded affinity beads, and test compounds in 1× binding buffer (20% SeaBlock, 0.17×PBS, 0.05% Tween 20, 6 mM DTT). Test compounds were prepared as 40× stocks in 100% DMSO and directly diluted into the assay. All reactions were performed in polypropylene 384-well plates in a final volume of 0.04 ml. The assay plates were incubated at room temperature with shaking for 1 hour and the affinity beads were washed with wash buffer (1×PBS, 0.05% Tween 20). The beads were then re-suspended in elution buffer (1×PBS, 0.05% Tween 20, 0.5 μM non-biotinylated affinity ligand) and incubated at room temperature with shaking for 30 minutes. The kinase concentration in the eluates was measured by qPCR.
# Selectivity Score or S-score is a quantitative measure of compound selectivity. It is calculated by dividing the number of kinases that compounds bind to by the total number of distinct kinases tested, excluding mutant variants.
# S=Number of hits/Number of assays
# This value can be calculated using % Ctrl as a potency threshold (below) and provides a quantitative method of describing compound selectivity to facilitate comparison of different compounds.
# S(35)=(number of non-mutant kinases with % Ctrl<35)/(number of non-mutant kinases tested)
# S(10)=(number of non-mutant kinases with % Ctrl<10)/(number of non-mutant kinases tested)
# S(1)=(number of non-mutant kinases with % Ctrl<1)/(number of non-mutant kinases tested)
compound,measurement,setting,value
Cc1cc(Oc2cc(NC(=O)C3CC3)ncn2)ccc1NC(=O)Nc1ccc(Cl)c(C(F)(F)F)c1 [CBT-102],remaining activity at 1 µM,[1],82%
same,remaining activity at 1 µM,[2],2.3%
same,remaining activity at 1 µM,ACVRL1,67%
same,remaining activity at 1 µM,AMPK-alpha2,100%
same,remaining activity at 1 µM,BMPR2,82%
same,remaining activity at 1 µM,BMX,90%
same,remaining activity at 1 µM,DMPK2,100%
same,remaining activity at 1 µM,DRAK2,100%
same,remaining activity at 1 µM,EGFR,76%
same,remaining activity at 1 µM,EPHA4,49%
same,remaining activity at 1 µM,EPHA8,9.1%
same,remaining activity at 1 µM,EPHB6,14%
same,remaining activity at 1 µM,FAK,86%
same,remaining activity at 1 µM,IRAK1,75%
same,remaining activity at 1 µM,IRAK4,93%
same,remaining activity at 1 µM,MAP4K4,3.4%
same,remaining activity at 1 µM,MET,80%
same,remaining activity at 1 µM,MLCK,100%
same,remaining activity at 1 µM,PIK3CA (C420R),100%
same,remaining activity at 1 µM,PIK3CA (E545K),94%
same,remaining activity at 1 µM,PIP5K1A,100%
same,remaining activity at 1 µM,[3],73%
same,remaining activity at 1 µM,SNRK,100%
same,remaining activity at 1 µM,SRPK1,56%
same,remaining activity at 1 µM,[4],5.6%
same,remaining activity at 1 µM,VEGFR2,1.4%
same,remaining activity at 1 µM,YANK3,88%
same,remaining activity at 1 µM,ZAP70,90%
same,IC50,B-Raf (h),0.348 µM
same,IC50,CSK (h),> 10 µM
same,IC50,EphB3 (h),> 10 µM
same,effect on T cell surface marker CD3 (IHC),[5],no significant effect
same,Selectivity Score S (1),"403 non-mutant kinases; % Ctrl<1, 1000 nM",0.032
same,Selectivity Score S (10),"403 non-mutant kinases; % Ctrl<10, 1000 nM",0.089
same,Selectivity Score S (35),"403 non-mutant kinases; % Ctrl<35, 1000 nM",0.151
same,"Number of Hits, S (1)","403 non-mutant kinases; non-mutant kinases with % Ctrl<1, 1000 nM",13
same,"Number of Hits, S (10)","403 non-mutant kinases; non-mutant kinases with % Ctrl<10, 1000 nM",36
same,"Number of Hits, S (35)","403 non-mutant kinases; non-mutant kinases with % Ctrl<35, 1000 nM",61
